The test system of assay [1] is transformation line N-Z1-At6. Description: Herbicide and herbicide mixture resistance of transformation line N-Z1-At6. The following applies: sprayed during the 4th-6th leaf stage. In kind it is in vivo, Arabidopsis thaliana. From the text: The resistance capability of N-Z1-At6 to other herbicides was further tested. Atrazine (90% water dispersible granule, Syngenta), Dicamba (48% aqueous formulation, Syngenta), flumiclorac-pentyl (10% emulsifiable concentrate, Sumitomo Chemical Corporation), bentazon, penoxsulam, bensulfuron and tribenuron are respectively sprayed during the 4th-6th leaf stage.
The transformation line N-Z1-At6 was further tested for the resistance to herbicide mixture.

Assay [2] has as its system untransformed Arabidopsis thaliana seeds. Description: Germination and growth on glyphosate medium. The assay is classed as in vivo. The settings on record: growth medium containing 0.5 mM glyphosate. On the procedure: The seeds obtained from Arabidopsis thaliana infected by Agrobacterium were allowed to germinate and grow in Arabidopsis thaliana growth medium containing 0.5 mM glyphosate. […] However, the seeds that introduced with T-DNA can grow and develop, followed by flowering and harvesting seeds. A total of 35 individual glyphosate-resistant seedlings (T0 generation) were obtained, and the seeds thereof were harvested.

The test system of assay [3] is transgenic Arabidopsis thaliana transformation lines (vector pCambia1300-35S/G10-35S/N-Z1). Description: Herbicide resistance of transgenic Arabidopsis thaliana, pCambia1300-35S/G10-35S/N-Z1. In kind it is in vivo. The following applies: 10 days after spraying. From the text: A total of 35 individual transformation lines were obtained using vector pCambia1300-35S/G10-35S/N-Z1. The T1 generation seedlings (obtained after the germination of T0 generation seeds) were sprayed with glyphosate diluted at 1:200 (41% aqueous solution of glyphosate isopropylamine salt, Xin'an chemical company) to remove the isolated plants without introduction of glyphosate-resistant gene. The survived plants were subjected to herbicide resistance test after growing to 4th-6th leaf stages.
(§1) Nicosulfuron resistance test: 10 plants for each line were sprayed with nicosulfuron (the dose is equal to 6 mg/square meter, the effective spraying concentration was 80 mg/L, and the product was Yu Nongle, Zhejiang Gold-Ox pesticides LTD). Non-transgenic recipient parent Arabidopsis thaliana was used as negative control. Their nicosulfuron resistance levels were evaluated 10 days after spraying nicosulfuron. […] All of the non-transgenic recipient parent Arabidopsis thaliana died.
(§2) Mesotrione resistance test: 10 plants for each line were sprayed with mesotrione (the dose is equal to 15 mg/square meter, the effective spraying concentration was 200 mg/L, and the product was 10% mesotrione suspension, Syngenta). Non-transgenic recipient parent Arabidopsis thaliana was used as negative control. Their mesotrione resistant levels were evaluated 10 days after spraying mesotrione. […] All of the non-transgenic recipient parent Arabidopsis thaliana died.
(§3) 2,4-D resistance test: 10 plants for each line were sprayed with 2,4-D (the dose was equal to 150 mg/square meter, the spraying concentration was 1.4 g/L, and the product was soluble powder of […], Haiyan boda fine chemical Co., Ltd). Non-transgenic recipient parent Arabidopsis thaliana was used as negative control. […] All of the non-transgenic recipient parent Arabidopsis thaliana died.

Assay [4] deals with Non-transgenic recipient parent Arabidopsis thaliana. Description: Herbicide spray on non-transgenic Arabidopsis thaliana. In kind it is in vivo. The settings on record: 10 days after spraying. On the procedure:
as §1, §2, §3

Assay [5] has as its system transgenic rice strains obtained by pCam1300-N-Z2 vector transformation. Description: Herbicide resistance of transgenic rice, pCam1300-N-Z2 vector. The assay is classed as in vivo. The following applies: after 10 days, 10 strains. From the text: The method for obtaining transgenic rice was implemented using existing technology (Lu Xiongbin, Gong zuxun, 1998, Life Science, 10: 125-131; Liu fan et al., 2003, Molecular Plant Breeding, 1:108-115). Ripe and plump “Xiushui 134” seeds were selected and deshelled, and the calli were induced and produced which would be used as transformation material. Agrobacterium containing target gene vectors pCam1300-N-Z1 and pCam1300-N-Z2 was taken and streaked onto a plate, and single colony was selected and inoculated to prepare Agrobacterium for transformation. The calli to be transformed were placed into Agrobacterium liquid (containing acetosyringone) with proper concentration, allowing the Agrobacterium to be conjugated to the surface of the calli, and then the calli were transferred to a coculture medium and cocultured for 2-3 days. The transformed calli were rinsed with aseptic water and transferred to a selective medium containing appropriate hygromycin, and cultured for screening for two months (subcultured one time during the period). The calli after being screened with good viability were transferred to a pre-differentiation medium and cultured for about 20 days, and then the pre-differentiated calli were transferred to a differential medium and irradiated with light for 14 hours for differentiation and sprouting. […]

The subject of assay [6] is non-transgenic strains of the same variety "XiuShui 134". Description: Herbicide spray on non-transgenic rice. In kind it is in vivo. The following applies: after 10 days. On the procedure:
(§4) 10 different transgenic rice strains obtained by pCam1300-N-Z1 vector transformation and non-transgenic strains of the same variety “XiuShui 134” were selected and planted in a greenhouse (at a temperature of 15° C.-25° C.), and nicosulfuron (Yu Nongle, zhejiang Gold-Ox pesticides LTD) was sprayed at 6 mg/square meter when the seedlings have a height of about 10 cm.
(§5) 10 different transgenic rice strains obtained by pCam1300-N-Z1 vector transformation and non-transgenic strains of the same variety “XiuShui 134” were selected and planted in a greenhouse (at a temperature of 15° C.-25° C.), and mesotrione (10% mesotrione suspension, Syngenta) was sprayed at 15 mg/square meter when the seedlings have a height of about 10 cm.
10 different transgenic rice strains obtained by pCam1300-N-Z2 vector transformation and non-transgenic strains of the same variety “XiuShui 134” were selected and planted in the greenhouse (at a temperature of 15° C.-25° C.), and nicosulfuron was sprayed at 6 mg/square meter when the seedlings have a height of about 10 cm.
10 different transgenic rice strains obtained by pCam1300-N-Z2 vector transformation and non-transgenic strains of the same variety “XiuShui 134” were selected and planted in the greenhouse (at a temperature of 15° C.-25° C.), and mesotrione was sprayed at 15 mg/square meter when the seedlings have a height of about 10 cm.

Assay [7] relates to Cynodon dactylon. Description: Herbicide spray resistance determination of Cynodon dactylon. The following applies: observed after 10 days. In kind it is in vivo. An excerpt: (§6) Cynodon dactylon is a common weed as well as a turfgrass.
Assay [8] has as its system transgenic rice strains obtained by pCam1300-N-Z1 vector transformation. Description: Herbicide resistance of transgenic rice, pCam1300-N-Z1 vector. The settings on record: after 10 days; for transgenic strains with slow growth / transgenic strains without any observable growth inhibition: of 10 strains; for death rate of transgenic strains: seedlings about 10 cm, 10 strains. In kind it is in vivo.
Source text: The method for obtaining transgenic rice was implemented using existing technology (Lu Xiongbin, Gong zuxun, 1998, Life Science, 10: 125-131; Liu fan et al., 2003, Molecular Plant Breeding, 1:108-115). Ripe and plump “Xiushui 134” seeds were selected and deshelled, and the calli were induced and produced which would be used as transformation material. Agrobacterium containing target gene vectors pCam1300-N-Z1 and pCam1300-N-Z2 was taken and streaked onto a plate, and single colony was selected and inoculated to prepare Agrobacterium for transformation. The calli to be transformed were placed into Agrobacterium liquid (containing acetosyringone) with proper concentration, allowing the Agrobacterium to be conjugated to the surface of the calli, and then the calli were transferred to a coculture medium and cocultured for 2-3 days. The transformed calli were rinsed with aseptic water and transferred to a selective medium containing appropriate hygromycin, and cultured for screening for two months (subcultured one time during the period). The calli after being screened with good viability were transferred to a pre-differentiation medium and cultured for about 20 days, and then the pre-differentiated calli were transferred to a differential medium and irradiated with light for 14 hours for differentiation and sprouting. After 2-3 weeks, the regenerated plants having resistance were transferred to a rooting medium containing nicosulfuron (0.1 mg/L) for strengthening the seedling and growing roots, and then the regenerated plants were rinsed to remove agar and transferred into a greenhouse to be used as identification materials.
as §4, §5

Assay [9] has as its system control weeds including green bristlegrass, wild oats, Amaranthus retroflexus, humulus, purslane, Monochoria vaginalis, piemarker and nutgrass galingale herb. Description: Herbicide spray on control weeds. The assay is classed as in vivo. The following applies: observed after 10 days.
Source text: as §6

Setting [10] is: mesotrione 15 mg/square meter (200 mg/L).
The mark [11] stands for this setting: nicosulfuron 6 mg/square meter (80 mg/L), of 35 lines.

The record followed here is patent US9657307B2, “Herbicide resistance gene and use thereof” (HANGZHOU RUIFENG BIOTECHNOLOGY LIMITED INC., priority 2010, dated 2017).

Take `COc1nc(C)nc(N(C)C(=O)NS(=O)(=O)c2ccccc2C(=O)O)n1` [tribenuron]: in assay [1], the “resistance level of N-Z1-At6 compared with non-transgenic parental plants” value is on record as “obviously improved”.
In the case of `COc1cnc(OC)n2nc(NS(=O)(=O)c3c(OCC(F)F)cccc3C(F)(F)F)nc12` [penoxsulam], the “resistance level of N-Z1-At6 compared with non-transgenic parental plants” value in [1] was “obviously improved”.
With `O=C(O)CNCP(=O)(O)O` [glyphosate], in assay [2], the “growth of untransformed seeds after germination” value was “yellowed and died”.
`CS(=O)(=O)c1ccc(C(=O)C2C(=O)CCCC2=O)c([N+](=O)[O-])c1` [mesotrione]: in assay [3] (setting [10]), the killed was determined as 11 plants and the “whitening at the early stage, most recovered later” value is reported as 18 plants. In addition, the “transformation lines with no obvious herbicide damage” value in [3] (mesotrione 15 mg/square meter (200 mg/L), of 35 lines) is listed as 6 lines. Besides, the “death of non-transgenic recipient parent” value in assay [4] (setting [10]) is on record as “died”. Moreover, the “death of transgenic strains (N-Z2)” value in [5] (mesotrione 15 mg/square meter) is recorded as “died”. Further, in [6] (mesotrione 15 mg/square meter), the “death of non-transgenic strains” value is “died”. Moreover, the “death of Cynodon dactylon” value in assay [7] (mesotrione 1000 mg/L sprayed) is “no death”. In addition, in assay [8] (mesotrione 15 mg/square meter), the “transgenic strains with slow growth” value was 7 strains, the “transgenic strains without any observable growth inhibition” value was determined as 3 strains and the “death rate of transgenic strains” value is 0%. In [9] (mesotrione 1000 mg/L sprayed), the “death of control weeds” value was “died due to the occurrence of whitening”.
`COc1c(Cl)ccc(Cl)c1C(=O)O` [Dicamba]: in assay [1], the “resistance level of N-Z1-At6 compared with non-transgenic parental plants” value was “obviously improved”.
On to `CC(C)N1C(=O)c2ccccc2NS1(=O)=O` [bentazon], for which the “resistance level of N-Z1-At6 compared with non-transgenic parental plants” value in assay [1] is listed as “obviously improved”.
Take `COc1cc(OC)nc(NC(=O)NS(=O)(=O)c2ncccc2C(=O)N(C)C)n1` [nicosulfuron]: in assay [3] (setting [11]), the lines killed is on record as 6 lines, the “lines with different degrees of growth inhibition” value is listed as 8 lines and the “transformation lines with no obvious herbicide damage” value amounted to 21 lines. For the same compound, the “death of non-transgenic recipient parent” value in assay [4] (nicosulfuron 6 mg/square meter (80 mg/L)) was “died”. Moreover, the “death of transgenic strains (N-Z2)” value in assay [5] (nicosulfuron 6 mg/square meter) is “died”. For the same compound, in assay [6] (nicosulfuron 6 mg/square meter), the “death of non-transgenic strains” value is given as “died”. Moreover, the “death of Cynodon dactylon” value in [7] (nicosulfuron 400 mg/L sprayed) is “no death”. In [8] (nicosulfuron 6 mg/square meter), the “transgenic strains with slow growth” value turned out to be 2 strains, the “transgenic strains without any observable growth inhibition” value is recorded as 8 strains and the “death rate of transgenic strains” value is 0%. For the same compound, the “death of control weeds” value in assay [9] (nicosulfuron 400 mg/L sprayed) is recorded as “killed”.
For the compound `CCCCCOC(=O)COc1cc(N2C(=O)C3=C(CCCC3)C2=O)c(F)cc1Cl` [flumiclorac-pentyl], the “resistance level of N-Z1-At6 compared with non-transgenic parental plants” value in [1] is “obviously improved”.
In the case of `COc1cc(OC)nc(NC(=O)NS(=O)(=O)Cc2ccccc2C(=O)O)n1` [bensulfuron], the “resistance level of N-Z1-At6 compared with non-transgenic parental plants” value in assay [1] is on record as “obviously improved”.
On to `CCNc1nc(Cl)nc(NC(C)C)n1` [Atrazine], for which, in [1], the “resistance level of N-Z1-At6 compared with non-transgenic parental plants” value is given as “obviously improved”.
